The values below are quoted from earlier work in patent US20110300232A1, “EFFECTS OF NITRIC OXIDE (NO) AND iNOS ON EXPRESSION AND SIGNAL TRANSDUCTION IN CANCER AND ITS USE IN DRUG DISCOVERY AND CANCER THERAPY DESIGN” (priority 2010, published 2011).

The structures appear in SMILES notation.

One data set concerns HIF-α. The settings on record: for effect on HIF-α expression: NO donor exposure, FIG. 4A and 4B, MCF-7.
Assay in data set [1]: not given
The source holds these as a separate data set.

For another data set, the system named is p53. Particulars: high levels of NO.

In the case of `CCN(CC)/[N+]([O-])=N/[O-].[Na+]` [DEA/NO], the “duration of NO level provided in media” value is “only an hour”. In addition, the “effect on HIF-α expression” value in the data set with HIF-α is on record as “did not regulate HIF-α expression”.

Regarding `NCCN(CCN)/[N+]([O-])=N/O` [DETA/NO], the “duration of NO level provided in media” value is reported as “several hours”. In addition, in the data set with HIF-α, the “effect on HIF-α expression” value is “stabilizing the HIF-α expression”.

On to `[N]=O` [NO, Nitric oxide], for which the “NO concentration required for HIF-α stabilization” value with HIF-α (low concentration of NO) is 100-200 nm. In data set [1], the “half-life in the body” value is 1 to 5 s. For the same molecule, the “NO level that stimulates p53 activation, causing apoptosis” value with p53 was “more than 500 nm”.

For the molecule `NCCCNCCCCN(CCCN)/[N+]([O-])=N/O` [Sper/NO], the “duration of NO level provided in media” value is given as “several hours”. Further, the “effect on HIF-α expression” value in the data set on HIF-α is listed as “stabilizing the HIF-α expression”.
